# Assays:
# [1] = target: Delta-type opioid receptor (Mus musculus, UniProt P32300); experiment: Inhibitory concentration required against biological activity of Opioid receptor delta 1 from mouse vas deferens (MVD)
# Mu-type opioid receptor [2] = target: T1, Mu-type opioid receptor (Cavia porcellus, UniProt P97266); experiment: Compound was tested for binding affinity towards mu opioid receptor in guinea pig brain homogenates using [3H]CTOP as radioligand; format: tissue-based
# Mu-type opioid receptor [3] = target: T1, Mu-type opioid receptor; experiment: Inhibitory concentration required against biological activity of mu opioid receptor from guinea pig ileum (GPI); format: tissue-based
# [4] = target: Opioid receptors; mu & delta (Homo sapiens) (UniProt P41143+P35372); experiment: Selectivity ratio of binding affinity towards delta opioid receptor to that of mu opioid receptor; format: protein assay
# Chain of Opioid receptors; mu & delta (Homo sapiens) (P35372 whole entry, looked up): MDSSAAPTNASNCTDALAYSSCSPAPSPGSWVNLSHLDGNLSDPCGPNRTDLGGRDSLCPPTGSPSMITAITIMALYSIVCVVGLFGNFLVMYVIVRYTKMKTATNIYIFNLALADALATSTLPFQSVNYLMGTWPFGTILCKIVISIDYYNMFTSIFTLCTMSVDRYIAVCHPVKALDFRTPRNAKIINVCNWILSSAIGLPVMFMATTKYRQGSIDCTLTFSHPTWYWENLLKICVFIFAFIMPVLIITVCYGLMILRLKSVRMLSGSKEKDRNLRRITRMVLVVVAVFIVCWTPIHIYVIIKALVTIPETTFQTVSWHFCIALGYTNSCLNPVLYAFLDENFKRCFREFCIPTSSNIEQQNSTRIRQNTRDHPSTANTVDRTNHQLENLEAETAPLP
# Chain of Opioid receptors; mu & delta (Homo sapiens) (P41143 whole entry, looked up): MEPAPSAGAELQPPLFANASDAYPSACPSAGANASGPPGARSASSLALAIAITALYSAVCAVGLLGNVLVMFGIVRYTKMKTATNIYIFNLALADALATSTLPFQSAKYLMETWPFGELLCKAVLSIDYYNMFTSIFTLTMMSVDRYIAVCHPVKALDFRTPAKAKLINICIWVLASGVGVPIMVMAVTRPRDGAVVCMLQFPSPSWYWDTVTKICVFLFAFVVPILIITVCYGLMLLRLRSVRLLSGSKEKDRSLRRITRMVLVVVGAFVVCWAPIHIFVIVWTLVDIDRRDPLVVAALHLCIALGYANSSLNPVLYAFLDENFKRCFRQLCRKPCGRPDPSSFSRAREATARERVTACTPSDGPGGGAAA
# [5] = test system: Opioid receptors; mu & delta; experiment: Ratio of activity of mu opioid receptor from guinea pig ileum (GPI) to that of delta opioid receptor from mouse vas deferens (MVD); format: tissue-based
# Chain of Delta-type opioid receptor (P32300 whole entry): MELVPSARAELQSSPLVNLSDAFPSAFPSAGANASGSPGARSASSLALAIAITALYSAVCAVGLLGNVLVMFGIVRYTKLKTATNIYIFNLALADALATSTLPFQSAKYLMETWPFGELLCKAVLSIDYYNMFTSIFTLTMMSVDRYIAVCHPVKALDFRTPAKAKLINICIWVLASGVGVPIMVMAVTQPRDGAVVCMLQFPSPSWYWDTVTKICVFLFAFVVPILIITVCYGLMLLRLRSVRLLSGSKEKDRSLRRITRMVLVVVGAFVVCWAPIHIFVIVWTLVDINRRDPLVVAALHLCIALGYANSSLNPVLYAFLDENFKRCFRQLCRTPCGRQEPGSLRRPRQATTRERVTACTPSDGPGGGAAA
# T1 sequence (P97266 whole entry): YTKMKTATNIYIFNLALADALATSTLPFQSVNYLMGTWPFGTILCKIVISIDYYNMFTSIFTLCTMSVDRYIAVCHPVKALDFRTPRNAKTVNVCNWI
Structure (SMILES),IC50 [1] [nM],Ki (Mu-type opioid receptor [2]) [nM],IC50 (Mu-type opioid receptor [3]) [nM],Ratio [4],Ratio [5]
"CC(NC(=O)[C@@H](N)Cc1ccc(O)cc1)C(=O)NCC(=O)N[C@H](C(=O)NNC(=O)[C@@H](NC(=O)CNC(=O)C(C)NC(=O)[C@@H](N)Cc1ccc(O)cc1)[C@@H](C)c1ccccc1)[C@@H](C)c1ccccc1 (single isomer, unassigned)",120,3,41,0.27,0.34
C[C@@H](NC(=O)[C@@H](N)Cc1ccc(O)cc1)C(=O)NCC(=O)N[C@@H](Cc1c(F)c(F)c(F)c(F)c1F)C(=O)NNC(=O)[C@H](Cc1c(F)c(F)c(F)c(F)c1F)NC(=O)CNC(=O)[C@@H](C)NC(=O)[C@@H](N)Cc1ccc(O)cc1,25,0.91,8.9,0.12,0.36
C[C@@H](NC(=O)[C@@H](N)Cc1ccc(O)cc1)C(=O)NCC(=O)N[C@@H](Cc1cccc2ccccc12)C(=O)NNC(=O)[C@H](Cc1cccc2ccccc12)NC(=O)CNC(=O)[C@@H](C)NC(=O)[C@@H](N)Cc1ccc(O)cc1,17,0.79,1.7,0.12,0.1
C[C@@H](NC(=O)[C@@H](N)Cc1ccc(O)cc1)C(=O)NCC(=O)N[C@@H](Cc1ccc2ccccc2c1)C(=O)NNC(=O)[C@H](Cc1ccc2ccccc2c1)NC(=O)CNC(=O)[C@@H](C)NC(=O)[C@@H](N)Cc1ccc(O)cc1,9.3,1.7,2.2,0.23,0.24
C[C@H](c1ccccc1)[C@H](NC(=O)CNC(=O)[C@@H](C)NC(=O)[C@@H](N)Cc1ccc(O)cc1)C(=O)NNC(=O)[C@@H](NC(=O)CNC(=O)[C@@H](C)NC(=O)[C@@H](N)Cc1ccc(O)cc1)[C@H](C)c1ccccc1 (stereo in doubt),180,1.3,21,0.012,0.12
